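Cultured in 96-well plates, cells were exposed to test compound for 48 hours across five concentrations. Abbreviation: GI50, concentration required for 50% inhibition of growth.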 The source made the active and inactive calls. Cut-off read from the data, not from the text of the source: active = GI50 up to about 1.1 µM and inactive = higher.
Legend:
Assay in all cases: NCI-60 cell line screen, 48 h
786-0 = tested on: 786-0
A498 = tested on: A498
A549 = tested on: A549
ACHN = tested on: ACHN
BT-549 = tested on: BT-549
CAKI-1 = tested on: CAKI-1
CCRF-CEM = tested on: CCRF-CEM
COLO 205 = tested on: COLO 205
DU-145 = tested on: DU-145
EKVX = tested on: EKVX
HCC 2998 = tested on: HCC 2998
HCT-116 = tested on: HCT-116
HCT-15 = tested on: HCT-15
HL-60 = tested on: HL-60
HOP-62 = tested on: HOP-62
HOP-92 = tested on: HOP-92
HT-29 = tested on: HT-29
Hs-578T = tested on: Hs-578T
IGROV-1 = tested on: IGROV-1
K562 = tested on: K562
KM12 = tested on: KM12
LOX IMVI = tested on: LOX IMVI
M14 = tested on: M14
MCF7 = tested on: MCF7
MDA-MB-231 = tested on: MDA-MB-231
MDA-MB-435 = tested on: MDA-MB-435
MOLT-4 = tested on: MOLT-4
Malme-3M = tested on: Malme-3M
NCI-H226 = tested on: NCI-H226
NCI-H23 = tested on: NCI-H23
NCI-H460 = tested on: NCI-H460
NCI-H522 = tested on: NCI-H522
NCI/ADR-RES = tested on: NCI/ADR-RES
OVCAR-3 = tested on: OVCAR-3
OVCAR-4 = tested on: OVCAR-4
OVCAR-5 = tested on: OVCAR-5
OVCAR-8 = tested on: OVCAR-8
PC-3 = tested on: PC-3
RPMI-8226 = tested on: RPMI-8226
RXF 393 = tested on: RXF 393
SF-268 = tested on: SF-268
SF-295 = tested on: SF-295
SK-MEL-28 = tested on: SK-MEL-28
SK-MEL-2 = tested on: SK-MEL-2
SK-MEL-5 = tested on: SK-MEL-5
SK-OV-3 = tested on: SK-OV-3
SN12C = tested on: SN12C
SNB-19 = tested on: SNB-19
SNB-75 = tested on: SNB-75
SR = tested on: SR
SW-620 = tested on: SW-620
T47D = tested on: T47D
TK-10 = tested on: TK-10
U-251 = tested on: U-251
UACC-257 = tested on: UACC-257
UACC-62 = tested on: UACC-62
UO-31 = tested on: UO-31
MDA-N = tested on: MDA-N
SF-539 = tested on: SF-539

`COc1ccc(N2C(=O)C3c4[nH]c5ccc(C)cc5c4C4CCC(c5ccccc5)CC4C3C2=O)cc1` (stereo not given) was tested, and the GI50 (786-0) was 9.64 µM (inactive), the GI50 (A498) was 22.9 µM (inactive) and the GI50 (A549) was > 89.1 µM (inactive). For the same molecule, the GI50 (ACHN) was 32.6 µM (inactive), the GI50 (BT-549) was 42.3 µM (inactive) and the GI50 (CAKI-1) was > 33.1 µM (inactive). For the same molecule, the GI50 (CCRF-CEM) was 4.9 µM (inactive), the GI50 (COLO 205) was > 100 µM (inactive) and the GI50 (DU-145) was > 100 µM (inactive). The GI50 (EKVX) was > 64.3 µM (inactive), the GI50 (HCC 2998) was > 100 µM (inactive) and the GI50 (HCT-116) was > 57.7 µM (inactive). For the same molecule, the GI50 (HCT-15) was > 75.9 µM, the GI50 (HL-60) was 12.8 µM (inactive) and the GI50 (HOP-62) was 7.05 µM (inactive). The GI50 (HOP-92) was 14.6 µM (inactive), the GI50 (HT-29) was > 100 µM (inactive) and the GI50 (Hs-578T) was 6.84 µM (inactive). For the same molecule, the GI50 (IGROV-1) was > 51.3 µM (inactive), the GI50 (K562) was 25.8 µM (inactive) and the GI50 (KM12) was > 100 µM (inactive). The GI50 (LOX IMVI) was > 57.3 µM (inactive), the GI50 (M14) was 47.1 µM (inactive) and the GI50 (MCF7) was > 83.6 µM (inactive). The GI50 (MDA-MB-231) was 8.41 µM (inactive), the GI50 (MDA-MB-435) was > 100 µM (inactive) and the GI50 (MOLT-4) was 41.2 µM (inactive). For the same molecule, the GI50 (Malme-3M) was > 100 µM (inactive), the GI50 (NCI-H226) was > 100 µM (inactive) and the GI50 (NCI-H23) was 33.7 µM (inactive). The GI50 (NCI-H460) was 39 µM (inactive), the GI50 (NCI-H522) was > 100 µM (inactive) and the GI50 (NCI/ADR-RES) was > 100 µM (inactive). The GI50 (OVCAR-3) was > 100 µM (inactive), the GI50 (OVCAR-4) was > 32.5 µM (inactive) and the GI50 (OVCAR-5) was > 100 µM (inactive). For the same molecule, the GI50 (OVCAR-8) was 22.5 µM (inactive), the GI50 (PC-3) was > 100 µM (inactive) and the GI50 (RPMI-8226) was > 82.8 µM (inactive). The GI50 (RXF 393) was 12.6 µM (inactive), the GI50 (SF-268) was 11.8 µM (inactive) and the GI50 (SF-295) was 20.6 µM (inactive). The GI50 (SK-MEL-28) was > 100 µM (inactive), the GI50 (SK-MEL-2) was 28.5 µM (inactive) and the GI50 (SK-MEL-5) was > 100 µM (inactive). For the same molecule, the GI50 (SK-OV-3) was 18.9 µM (inactive), the GI50 (SN12C) was > 100 µM (inactive) and the GI50 (SNB-19) was 14.3 µM (inactive). For the same molecule, the GI50 (SNB-75) was 4.02 µM (inactive), the GI50 (SR) was 5.41 µM (inactive) and the GI50 (SW-620) was > 100 µM (inactive). For the same molecule, the GI50 (T47D) was > 100 µM (inactive), the GI50 (TK-10) was 28.6 µM (inactive) and the GI50 (U-251) was 12.9 µM (inactive). For the same molecule, the GI50 (UACC-257) was > 100 µM (inactive), the GI50 (UACC-62) was 22.6 µM (inactive) and the GI50 (UO-31) was > 89.5 µM (inactive).

In the case of `O=C1Nc2ccccc2Cn2c1cc1oc(-c3ccccc3)cc12`, the GI50 (786-0) is reported as 20.4 µM (inactive), the GI50 (A498) is reported as 36.5 µM (inactive) and the GI50 (A549) is reported as 32.4 µM (inactive). The GI50 (ACHN) was 37.2 µM (inactive), the GI50 (CAKI-1) was 30 µM (inactive) and the GI50 (CCRF-CEM) was > 100 µM (inactive). The GI50 (COLO 205) was > 100 µM (inactive), the GI50 (DU-145) was 17.3 µM (inactive) and the GI50 (EKVX) was 33.7 µM (inactive). For the same molecule, the GI50 (HCC 2998) was > 100 µM (inactive), the GI50 (HCT-15) was 88.9 µM and the GI50 (HL-60) was > 100 µM (inactive). For the same molecule, the GI50 (HOP-62) was 21.6 µM (inactive), the GI50 (HOP-92) was 31.3 µM (inactive) and the GI50 (HT-29) was > 100 µM (inactive). The GI50 (Hs-578T) was 10.9 µM (inactive), the GI50 (IGROV-1) was 29.8 µM (inactive) and the GI50 (K562) was 50.2 µM (inactive). The GI50 (KM12) was 95.1 µM (inactive), the GI50 (LOX IMVI) was > 100 µM (inactive) and the GI50 (MCF7) was 10.8 µM (inactive). For the same molecule, the GI50 (MDA-MB-231) was 32.5 µM (inactive), the GI50 (MDA-MB-435) was > 100 µM (inactive) and the GI50 (MDA-N) was > 100 µM (inactive). The GI50 (MOLT-4) was > 100 µM (inactive), the GI50 (Malme-3M) was 30.3 µM (inactive) and the GI50 (NCI-H23) was 86.9 µM (inactive). For the same molecule, the GI50 (NCI-H460) was 61.7 µM (inactive), the GI50 (NCI-H522) was 43.2 µM (inactive) and the GI50 (NCI/ADR-RES) was 45.5 µM (inactive). The GI50 (OVCAR-3) was 19.2 µM (inactive), the GI50 (OVCAR-4) was 28.8 µM (inactive) and the GI50 (OVCAR-5) was 62.4 µM (inactive). For the same molecule, the GI50 (OVCAR-8) was 31 µM (inactive), the GI50 (PC-3) was 57.3 µM (inactive) and the GI50 (RXF 393) was 21.4 µM (inactive). For the same molecule, the GI50 (SF-268) was 24 µM (inactive), the GI50 (SF-295) was 17.7 µM (inactive) and the GI50 (SF-539) was 29.7 µM (inactive). The GI50 (SK-MEL-28) was 63.5 µM (inactive), the GI50 (SK-MEL-2) was 44.2 µM (inactive) and the GI50 (SK-MEL-5) was 7.57 µM (inactive). The GI50 (SK-OV-3) was 28 µM (inactive), the GI50 (SN12C) was 27.4 µM (inactive) and the GI50 (SNB-19) was 22.5 µM (inactive). For the same molecule, the GI50 (SNB-75) was 24.9 µM (inactive), the GI50 (SR) was > 100 µM (inactive) and the GI50 (SW-620) was > 100 µM (inactive). The GI50 (T47D) was 23.8 µM (inactive), the GI50 (TK-10) was > 100 µM (inactive) and the GI50 (U-251) was 16 µM (inactive). The GI50 (UACC-257) was > 100 µM (inactive) and the GI50 (UACC-62) was 34.1 µM (inactive).
